From publication PMC13629022 (ACS Omega, 2026)
Entries after “also recorded” stand apart in the source; their conditions may differ. Where two headings read alike, the source gives them in different places.

What was measured:
[1] = tested on: nitric oxide production by stimulated J774.A1 macrophages; assay: Nitric oxide production by LPS + IFN-γ stimulated J774.A1 macrophages (nitrite, Griess method); assay type: cell-based, murine; details: for IC50 / Emax: Mus musculus; for Emax: read-out: efficacy: maximum effect (% of the maximum possible effect), inhibition of NO production, J774.A1 macrophages stimulated with LPS + IFN-γ, 24 h
Experimental: (§1) For cytokine and nitric oxide evaluations, J774.A1 cells were seeded in 96-well tissue culture plates at 2 × 10^5 cells per well in DMEM supplemented with 10% FBS and 50 μg/mL gentamicin and incubated for 2 h at 37 °C in a 5% CO2 atmosphere, as previously described. Cells were then stimulated with LPS (500 ng/mL) and IFN-γ (5 ng/mL) in the presence of either the test compounds at different concentrations (3.9–250 μM), the medium alone, or dexamethasone (40 μM, reference drug) and further incubated at 37 °C. Cell-free supernatants were collected 24 h after incubation for IL-1β, IL-6, and nitrite quantification. Cytokine concentrations in the supernatants of J774.A1 cultures were determined by enzyme-linked immunosorbent assay (ELISA) using the DuoSet kit (R&D Systems, Minneapolis, MN, USA), according to the manufacturer’s instructions. Results were expressed as picograms per milliliter (pg/mL) of IL-1β or IL-6. Quantification of nitrite as an indicator of nitric oxide production was performed using the Griess method. Three independent experiments were performed. −

[2] = tested on: murine macrophage-like J774.A1 cells; assay: Cytotoxicity to J774.A1 macrophages (Alamar Blue); details: concentrations up to 500 μM (compounds 7 and 13 up to 250 μM)
Experimental: Cells were incubated for 72 h at 37 °C in a 5% CO2 atmosphere, as previously described. They were then stimulated with LPS (500 ng/mL, Sigma Chemical Co., St. Louis, MO, USA) and IFN-γ (5 ng/mL, Sigma). Compounds were added to the medium at eight concentrations ranging from 1.9 to 500 μM, in triplicate, and incubated for 24 h. Subsequently, 20 μL per well of Alamar Blue (Invitrogen, Carlsbad, CA, USA) was added to the plates for 6 h. Compounds 7, 11, and 13 were evaluated only up to a maximum concentration of 250 μM due to the limited amount of purified material available for testing. Colorimetric readings were performed at 570 and 600 nm. Triton X-100 (5%) was used as the positive control.

[3] = tested on: IL-1β production by stimulated J774.A1 macrophages; assay: IL-1β production by LPS + IFN-γ stimulated J774.A1 macrophages (ELISA); assay type: cell-based, murine; details: compounds at 62.5 μM, Dexa 40 μM, 24 h, vs stimulated untreated cells, p < 0.05
Experimental: as §1, with “Cells” for “For cytokine and nitric oxide evaluations, J774.A1 cells were seeded in 96-well tissue culture plates at 2 × 10^5 cells per well in DMEM supplemented with 10% FBS and 50 μg/mL gentamicin and incubated for 2 h at 37 °C in a 5% CO2 atmosphere, as previously described. Cells”

[4] = tested on: IL-6 production by stimulated J774.A1 macrophages; assay: IL-6 production by LPS + IFN-γ stimulated J774.A1 macrophages (ELISA); assay type: cell-based, murine; details: compounds at 62.5 μM, Dexa 40 μM, 24 h, vs stimulated untreated cells, p < 0.05
Experimental: as §1, with “Cells” for “For cytokine and nitric oxide evaluations, J774.A1 cells were seeded in 96-well tissue culture plates at 2 × 10^5 cells per well in DMEM supplemented with 10% FBS and 50 μg/mL gentamicin and incubated for 2 h at 37 °C in a 5% CO2 atmosphere, as previously described. Cells”

[5] = J774.A1, 24 h, read-out: IC50, half maximal inhibitory concentration, NO production, J774.A1 macrophages stimulated with LPS (500 ng/mL) + IFN-γ (5 ng/mL), 24 h, nitrite by Griess
[6] = J774.A1, read-out: IC50 (in Figure 8 panels), nitric oxide production, Figure 8, no unit in the boxes, μM only in axis labels, LPS + IFN-γ stimulated J774.A1

Structure (SMILES)	efficacy: maximum effect (% of the maximum possible effect), inhibition of NO production ([1]; J774.A1 macrophages stimulated with LPS + IFN-γ, 24 h)	IC50 [1, 5]	Emax ([1]; J774.A1, 24 h)	IC50 [1, 6]	cytotoxic effects in J774 macrophages (in words) [2]	production of IL-1β (in words) [3]	production of IL-6 (in words) [4]
COC1CC(OC2C(C)OC(OC3CCC4(C)C(CCC5(O)C4CC(OC(=O)C=Cc4ccccc4)C4(C)C(O)(C(C)OC(=O)c6cccnc6)CCC54O)C3)CC2OC(C)=O)OC(C)C1OC1OC(C)C(O)C(OC)C1O [Compound 3, 12-O-cinnamoyl-20-O-nicotinoyl-(20R)-5,6-dihydrosarcostin-3-O-β-D-6-deoxy-3-O-methyl-allopyranosyl-(1 → 4)-β-D-oleandropyranosyl-(1 → 4)-β-D-3′-O-acetyl-cymaropyranoside]	68.0%	29.1 µM	71.8%	29.1 µM	did not induce cytotoxic effects	significant reduction; also recorded: comparable to those of Dexa	comparable to those of Dexa
COC1CC(OC2CCC3(C)C(CCC4(O)C3CC(OC(=O)C=Cc3ccccc3)C3(C)C(O)(C(C)OC(=O)c5ccccc5)CCC43O)C2)OC(C)C1OC1CC(OC)C(OC2OC(C)C(O)C(OC)C2O)C(C)O1 [Compound 4, 12-O-cinnamoyl-20-O-benzoyl-(20R)-5,6-dihydrosarcostin-3-O-β-D-6-deoxy-3-O-methyl-allopyranosyl-(1 → 4)-β-D-oleandropyranosyl-(1 → 4)-β-D-cymaropyranoside]		> 100 µM	< 50%		did not induce cytotoxic effects	significant reduction	reduced IL-1β production but not IL-6
COC1CC(OC2CCC3(C)C(CCC4C3CC(OC(=O)C=Cc3ccccc3)C3(C)C(C(C)O)CCC43O)C2)OC(C)C1OC1CC(OC)C(OC2OC(C)C(O)C(OC)C2O)C(C)O1 [Compound 10, 12-O-cinnamoyl-(20S)-5,6,8,17-tetrahydrosarcostin-3-O-β-D-6-deoxy-3-O-methyl-allopyranosyl-(1 → 4)-β-D-oleandropyranosyl-(1 → 4)-β-D-cymaropyranoside]		17.5 µM	66.1%	17.5 µM	most cytotoxic	significantly reducing; also recorded: significant reduction; also recorded: comparable to those of Dexa	significantly reducing; also recorded: comparable to those of Dexa
COC1CC(OC2CCC3(C)C(CCC4(O)C3CC(OC(C)=O)C3(C)C(C(C)O)CCC43O)C2)OC(C)C1OC1CC(OC)C(OC2OC(C)C(O)C(OC)C2O)C(C)O1 [Compound 16, 12-O-acetyl-(20S)-5,6,17-trihydrosarcostin-3-O-β-D-6-deoxy-3-O-methyl-allopyranosyl-(1 → 4)-β-D-oleandropyranosyl-(1 → 4)-β-D-cymaropyranoside]		40 to 70 µM	< 50%		only mild cytotoxicity at the highest concentrations	significant reduction	reduced IL-1β production but not IL-6
